Key:
[1] = test system: murine hepatic S9 fractions containing Phase I and II metabolic enzymes; assay: S9 metabolism; assay type: in vitro ADME; settings: mouse hepatic S9, 10 μM, 60 min incubation
Experimental: As a preliminary study of the metabolism of FBA-TPQ, the compound was incubated with S9 fractions containing Phase I and Phase II metabolic enzymes and their co-factors for 15, 30, 45, or 60 min. […] No specific peaks that seemed to correspond to unique metabolites were identified using the current RRLC method.
A preliminary study of the metabolism of FBA-TPQ was done using murine hepatic S9 fractions containing Phase I and II metabolic enzymes. […] Duplicate aliquots of the mixtures were taken at 0, 15, 30, 45, and 60 min, and the samples were processed and analyzed. The percent of FBA-TPQ that was metabolized by Phase I and Phase II enzymes was calculated by comparing the initial concentration of the iminoquinone to the measured concentration following incubation.

[2] = test system: prostate, breast, and ovarian cancer cell lines; design: method as in PMID 19274441, PMID 19451594, PMID 21673964; settings: cited from earlier work
[3] = test system: Panc-1 xenograft tumors; assay: Panc-1 xenograft model in nude mice; assay type: in vivo; settings: for inhibition of tumor growth: 5 days/week, vs control group
Experimental: Since it exerted potent effects in vitro, we determined whether FBA-TPQ could also show anti-tumor effects in vivo. Nude mice bearing Panc-1 xenograft tumors were treated with vehicle or FBA-TPQ at 5 or 10 mg/kg/day, 5 days per week.
Figure 3 In vivo effects of FBA-TPQ administered to nude mice bearing Panc-1 xenograft tumors. (a) FBA-TPQ was administered by intraperitoneal (ip) injection at doses of 5 mg/kg/day, 5 days/week for 3 weeks and 10 mg/kg/day, 5 days/week for 2 weeks, tumors were measured […]; (b) At the end of the experiment, representative tumors were removed and photographed; (c) Animals were also monitored for changes in body weight as a surrogate marker for toxicity.
The animal use and care protocol was approved by the Institutional Animal Use and Care Committee of Texas Tech University Health Sciences Center. Female athymic pathogen-free nude mice (nu/nu, 4–6 weeks) were purchased from the Charles River Laboratories International. Inc. (Wilmington, MA, USA). To establish Panc-1 human pancreatic cancer xenograft tumors, cultured Panc-1 cells were harvested from monolayer cultures, washed twice with serum-free medium, re-suspended and injected sc (5 × 10^6 cells, total volume 0.2 mL) into the left inguinal area of the mice. All animals were monitored for activity, physical condition, body weight, and tumor growth. Tumor size was determined every other day by caliper measurement of two perpendicular diameters of the implant. Tumor mass (in g) was calculated by the formula, 1/2a × b^2 where “a” is the long diameter and “b” is the short diameter (in cm).
The animals bearing human cancer xenografts were randomly divided into various treatment groups and a control group (7–10 mice/group). The untreated control group received the vehicle only. For the Panc-1 xenograft model, FBA-TPQ was dissolved in PEG400: ethanol: saline (57.1: 14.3: 28.6, v/v/v),and was administered by intraperitoneal (ip) injection at doses of 5 and 10 mg/kg/d, 5 d/wk for 3 weeks.

[4] = Stability in plasma and tissue samples; assay type: in vitro ADME, mouse; settings: RE within ±15%
Experimental: The stability of FBA-TPQ was evaluated at two concentrations (0.5 and 5.0 µM). […] At the designated time points, the samples were extracted and analyzed using the established RRLC analytical method. The stability of FBA-TPQ was assessed by comparing the initial concentration (time 0) with the final concentration following incubation of the compound at the noted temperatures, and expressing this difference as a percentage of the initial concentration.

[5] = MTT cell survival assay, IMR-90 normal fibroblasts; assay type: cell-based; settings: human, IMR-90 normal fetal fibroblast cells, read-out: Cytotoxicity IC50
Experimental: We evaluated the effects of FBA-TPQ on the survival of several human pancreatic cancer cell lines, including HPAC (p53^+/+), Panc-1(p53^+/−), and Mia PaCa-2(p53^+/−), as well as normal IRM90 fetal fibroblast cells (Figure 2a). Cells were exposed to various concentrations of the test compound (0–10 µM) for 72 h, and cell survival rates were determined by the MTT assay, using a procedure reported previously. FBA-TPQ exerted potent effects against the test cancer cell lines, leading to significant decreases in cell viability.
Human pancreatic cancer cells were obtained from the American Type Culture Collection (Rockville, MD). All cell culture media contained 10% FBS and 1% penicillin/streptomycin. […]
The effect of the test compound on human pancreatic cancer cell viability, expressed as the percentage of cell survival, was determined using the MTT (3-(4,5-dimethylthiazol-2-yl)-2,5-diphenyl tetrazolium bromide) assay. […] The absorbance at 570 nm was recorded using an OPTImax microplate reader (Molecular Devices; Sunnyvale, CA, USA). The cell survival percentages were calculated by dividing the mean OD of compound-containing wells by that of DMSO-containing control wells. […]

In the case of `O=C1C(NCc2ccc(F)cc2)=CC2=NCCc3c[nH]c1c32` [FBA-TPQ, 7-(4-fluorobenzylamino)-1,3,4,8-tetrahydropyrrolo[4,3,2-de]quinolin-8(1H)-one], the “compound metabolized by Phase I components” value [1] is listed as “approximately 14.3%”, the “compound metabolized by Phase II components” value [1] is listed as roughly 1.8% and the IC50 values [2] is listed as “nanomolar/low micromolar”. For the same compound, the “inhibition of tumor growth” value ([3]; 5 mg/kg/day ip) was 77.8%, the “inhibition of tumor growth” value ([3]; 10 mg/kg/day ip) was 90.1% and the “host toxicity (body weight as surrogate marker)” value ([3]; 5 and 10 mg/kg/day ip) was “No significant host toxicity”. The tumor regression/remission ([3]; both treated groups (5 and 10 mg/kg/day ip)) was “significant tumor regression or complete remission”, the “stability in plasma and tissue samples” value ([4]; 3 months at −80 °C) was “stable” and the “stability in plasma and tissue samples” value ([4]; 2 h at 22 °C following three freeze/thaw cycles (−20 to 22 °C)) was “stable”. The “stability in plasma and tissue samples” value ([4]; 24 h after preparation at 22 °C, low and high concentrations) was “stable” and the IC50 at 72 h [5] was 5.82 ± 0.46 µM.
